Patent US20220289782A1, “A Compound with High Anticoagulant Activity and Its Preparation Method and Application” (SUZHOU WISMED PHARMACEUTICALS CO LTD, priority 2019, published 2022)

Tests used:
[1] = Half-life after intravenous injection in male Wistar rats, concentration from plasma anti-factor Xa; format: in vivo; settings: 1 mg/Kg, T1/2 from concentration-time curve
Description: (§1) The pentose (API) in Example 10 is subjected to a biological test: anticoagulant factor Xa activity and half-life (Ti/2), as shown in Table 1. Determination of anticoagulant factor Xa activity: Refer to substrate developing method for determination of anticoagulant factor Xa of low molecular heparin. Measurement of half-life: inject this anticoagulant pentose (dosage 1 mg/Kg) in male Wistar rats intravenously for pharmacokinetic study, calculate the concentration of this compound in blood by measuring the anticoagulant factor Xa in plasma, and calculate the half-life (T1/2) by the concentration-time curve.

[2] = tested on: factor Xa; experiment: Determination of anticoagulant factor Xa activity (substrate developing method as for low molecular heparin); format: biochemical
Description: as §1

**Q.** With `CO[C@H]1O[C@H](COS(=O)(=O)O)[C@@H](O[C@@H]2O[C@@H](C(=O)O)[C@@H](O[C@H]3O[C@H](COS(=O)(=O)O)[C@@H](O[C@@H]4O[C@H](C(=O)O)[C@@H](O[C@H]5O[C@H](COS(=O)(=O)O)[C@@H](O)[C@H](O)[C@H]5NS(=O)(=O)O)[C@H](O)[C@H]4O)[C@H](OS(=O)(=O)O)[C@H]3NS(=O)(=O)O)[C@H](O)[C@H]2OS(=O)(=O)O)[C@H](O)[C@H]1NS(=O)(=O)O` [Fondaparinux sodium] as the compound, how does the Half-life [1] read?
**A.** Its Half-life is 0.6 ± 0.1 H.

**Q.** What about the “Anticoagulant Factor Xa” value [2] of the same compound?
**A.** The value was 750 + 30 IU/mg.
